Entries after “also recorded” stand apart in the source; their conditions may differ.

One assay deals with human pluripotent stem cells. The experiment in a line: HD-DoE #2: 13-factor experiment, differentiation toward anterior neuroectoderm (OTX2, FEZF2 expression). It is filed as cell-based. To be noted: 13-factor model. An excerpt:
(§1) This example utilizes a method of High-Dimensional Design of Experiments (HD-DoE), as previously described in Bukys et al. (2020) Iscience 23:101346. The method employs computerized design geometries to simultaneously test multiple process inputs and offers mathematical modeling of a deep effector/response space. The method allows for finding combinatorial signaling inputs that control a complex process, such as during cell differentiation. It allows testing of multiple plausible critical process parameters, as such parameters impact output responses, such as gene expression. Because gene expression provides hallmark features of the phenotype of, for example, a human cell, the method can be applied to identify, and understand, which signaling pathways control cell fate. In the current example, the HD-DOE method was applied with the intent to find conditions for induction of oligodendrocyte progenitor-expressed genes, directly from the pluripotent stem cell state.
(§2) Specifically, to develop a novel method to generate oligodendrocytes, the impact of agonists and antagonists of multiple signaling pathways (herein called effectors) were tested on expression of two sets of 53 pre-selected genes after a 3-day treatment. These effectors are small molecules that are commonly used during stepwise differentiation of stem cells to specific fates. Choice of the effectors were based on current literature on neural induction in anterior ectoderm and differentiation of stem cells to oligodendrocytes.
To further enhance the conditions for oligodendrocyte differentiation from pluripotency, we performed an additional HD-DoE experiment. We obtained additional gene regulatory models that were used for preparation of a differentiation protocol. The basis of this was a 13-factor HD-DoE experiment with focus on initiation of differentiation of cells toward anterior neuroectoderm. In this model, we focused on expression of FEZF2 and OTX2.
For the molecule `c1ccc2c(Oc3nc(Nc4ccc(N5CCOCC5)cc4)c4ncn(C5CCCCC5)c4n3)cccc2c1` [Purmorphamine], the “effect on expression of FEZF2 (dynamic profiling analysis)” value is “significant positive effects” and the “impact on expression level of OTX2 (dynamic profiling analysis)” value is given as “no negative impact”. With `Oc1nc(-c2ccc(C(F)(F)F)cc2)nc2c1CSCC2` [XAV939], the “effect on expression of FEZF2 (dynamic profiling analysis)” value is listed as “significant positive effects” and the “impact on expression level of OTX2 (dynamic profiling analysis)” value was “no negative impact”.

The assay is the same for the next values; noted with them: 13-factor model of high expression of OTX2.
Consider `c1ccc2c(-c3cnn4cc(-c5ccc(N6CCNCC6)cc5)cnc34)ccnc2c1` [LDN193189], for which the “contribution to expression of OTX2 (in words)” value (“contribution to expression” below) is on record as “positive contribution”. Take `Cc1c[nH]c(-c2cnc(NCCNc3ccc(C#N)cn3)nc2-c2ccc(Cl)cc2Cl)n1` [CHIR99021]: the “contribution to expression” value was “positive contribution”. On the same count and under the same terms, with `O=C(NOC[C@H](O)CO)c1ccc(F)c(F)c1Nc1ccc(I)cc1F` [PD0325901] the entry was “positive contribution”. Take `COc1ccc2c(c1)c(C1=C(c3c[nH]c4ccccc34)C(=O)NC1=O)cn2CCCN(C)C` [Go6983]: the “contribution to expression” value is reported as “positive contribution”.

A further assay relates to human pluripotent stem cells. The assay is described as follows: HD-DoE #1: 8-factor experiment, gene expression after 3-day treatment with effectors. It is filed as cell-based. To be noted: 8-factor model.
Text: as §1, §2
To test the effectors, experiments with at least 8 factors were designed that can assess the response of cells to 48 or more different combinations of effectors in a range of concentrations. To analyze the models, we focused on expression of genes expressed during early development of anterior neuroectoderm and oligodendrocytes including NKX2-2, OLIG2, OLIG1, and PDGFRA. The impact of each effector on gene expression level is defined by a parameter called factor contribution that is calculated for each effector during the modeling.
This model tested 8 factors: PD0325901, MK2206, TTNPB, SC79, MHY1485, ZM336372, AGN193109 and AZD3147.
On to `NC1(c2ccc(-c3nc4ccn5c(=O)[nH]nc5c4cc3-c3ccccc3)cc2)CCC1` [MK2206], for which the “effect on expression of targeted oligodendrocyte genes (NKX2-2, OLIG2)” value (“effect on expression … (NKX2-2, OLIG2)” below) was “negative effect”. Take `C/C(=C\c1ccc(C(=O)O)cc1)c1ccc2c(c1)C(C)(C)CCC2(C)C` [TTNPB]: the “effect on expression … (NKX2-2, OLIG2)” value was “significant positive effect”. As for `O=[N+]([O-])c1ccc(Nc2nc(N3CCOCC3)nc(N3CCOCC3)n2)cc1` [MHY1485], the “effect on expression … (NKX2-2, OLIG2)” value is “significant positive effect”. Turning to `O=C(NOC[C@H](O)CO)c1ccc(F)c(F)c1Nc1ccc(I)cc1F` [PD0325901], the “effect on expression … (NKX2-2, OLIG2)” value is listed as “negatively impacting; also recorded: negative effect”. As to `CCOC(=O)C1=C(N)Oc2ccc(Cl)cc2C1C(C#N)C(=O)OCC` (centres unmarked) [SC79], the “effect on expression … (NKX2-2, OLIG2)” value is “significant positive effect”.

Take `Cc1ccc(NC(=O)c2cccc(N(C)C)c2)cc1NC(=O)c1ccc(O)cc1` [ZM336372]: the “effect on expression … (NKX2-2, OLIG2)” value is “negatively impacting”.

For the origin of these results see patent publication US12385009B2, “Methods and compositions for generating oligodendrocyte progenitor cells” (Trailhead Biosystems Inc., priority 2021, dated 2025).
